In ChEMBL document CHEMBL4402605, “A Chemical Switch for Transforming a Purine Agonist for Toll-like Receptor 7 to a Clinically Relevant Antagonist” (J Med Chem, 2020):
Activity calls are given as the source filed them. The rule behind the calls is not given here.

Assays:
[1] = target: T1, Toll-like receptor 7 (Homo sapiens, UniProt Q9NYK1)
T1 sequence (Q9NYK1 whole entry): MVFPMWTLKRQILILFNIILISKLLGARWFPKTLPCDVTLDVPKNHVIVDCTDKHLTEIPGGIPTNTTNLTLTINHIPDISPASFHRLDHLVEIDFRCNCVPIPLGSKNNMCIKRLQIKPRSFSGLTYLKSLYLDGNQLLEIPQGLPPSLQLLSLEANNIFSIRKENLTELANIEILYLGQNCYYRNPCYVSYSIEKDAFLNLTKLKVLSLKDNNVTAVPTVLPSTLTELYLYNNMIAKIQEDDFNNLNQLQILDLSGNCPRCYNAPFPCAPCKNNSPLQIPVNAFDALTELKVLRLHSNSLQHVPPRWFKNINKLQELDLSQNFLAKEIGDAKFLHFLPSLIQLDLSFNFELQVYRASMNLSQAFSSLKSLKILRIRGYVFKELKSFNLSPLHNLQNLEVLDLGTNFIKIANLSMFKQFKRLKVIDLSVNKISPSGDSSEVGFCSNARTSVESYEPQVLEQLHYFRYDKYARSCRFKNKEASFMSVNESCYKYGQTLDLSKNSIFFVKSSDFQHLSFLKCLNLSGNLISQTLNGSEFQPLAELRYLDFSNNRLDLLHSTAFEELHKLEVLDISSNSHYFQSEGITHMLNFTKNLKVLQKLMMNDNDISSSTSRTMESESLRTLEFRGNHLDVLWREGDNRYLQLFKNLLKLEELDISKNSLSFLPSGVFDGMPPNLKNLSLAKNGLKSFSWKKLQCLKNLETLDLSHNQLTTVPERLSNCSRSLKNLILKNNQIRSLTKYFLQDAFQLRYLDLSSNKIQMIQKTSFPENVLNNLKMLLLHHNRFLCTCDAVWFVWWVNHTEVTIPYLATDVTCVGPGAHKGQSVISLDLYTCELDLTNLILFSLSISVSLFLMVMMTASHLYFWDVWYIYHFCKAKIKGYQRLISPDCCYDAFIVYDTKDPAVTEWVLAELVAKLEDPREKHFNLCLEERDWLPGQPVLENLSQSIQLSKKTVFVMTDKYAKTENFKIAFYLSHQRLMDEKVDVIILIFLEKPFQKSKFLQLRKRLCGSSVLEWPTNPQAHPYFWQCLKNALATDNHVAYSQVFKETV
Description: Antagonist activity at human TLR7 expressed in HEK-Blue cells assessed as inhibition of CL264-induced NFkappaB activation by measuring reduction in SEAP level after overnight incubation using qunati-blue reagent by SEAP reporter gene-based spectrophotometric method

[2] = target: T2, Toll-like receptor 8 (Homo sapiens) (UniProt Q9NR97); assay: Antagonist activity at human TLR8 expressed in HEK-Blue cells assessed as inhibition of CL075-induced NFkappaB activation by measuring reduction in SEAP level up to 50 uM after overnight incubation using qunati-blue reagent by SEAP reporter gene-based spectrophotometric method; assay type: cell-based
T2 sequence (whole entry): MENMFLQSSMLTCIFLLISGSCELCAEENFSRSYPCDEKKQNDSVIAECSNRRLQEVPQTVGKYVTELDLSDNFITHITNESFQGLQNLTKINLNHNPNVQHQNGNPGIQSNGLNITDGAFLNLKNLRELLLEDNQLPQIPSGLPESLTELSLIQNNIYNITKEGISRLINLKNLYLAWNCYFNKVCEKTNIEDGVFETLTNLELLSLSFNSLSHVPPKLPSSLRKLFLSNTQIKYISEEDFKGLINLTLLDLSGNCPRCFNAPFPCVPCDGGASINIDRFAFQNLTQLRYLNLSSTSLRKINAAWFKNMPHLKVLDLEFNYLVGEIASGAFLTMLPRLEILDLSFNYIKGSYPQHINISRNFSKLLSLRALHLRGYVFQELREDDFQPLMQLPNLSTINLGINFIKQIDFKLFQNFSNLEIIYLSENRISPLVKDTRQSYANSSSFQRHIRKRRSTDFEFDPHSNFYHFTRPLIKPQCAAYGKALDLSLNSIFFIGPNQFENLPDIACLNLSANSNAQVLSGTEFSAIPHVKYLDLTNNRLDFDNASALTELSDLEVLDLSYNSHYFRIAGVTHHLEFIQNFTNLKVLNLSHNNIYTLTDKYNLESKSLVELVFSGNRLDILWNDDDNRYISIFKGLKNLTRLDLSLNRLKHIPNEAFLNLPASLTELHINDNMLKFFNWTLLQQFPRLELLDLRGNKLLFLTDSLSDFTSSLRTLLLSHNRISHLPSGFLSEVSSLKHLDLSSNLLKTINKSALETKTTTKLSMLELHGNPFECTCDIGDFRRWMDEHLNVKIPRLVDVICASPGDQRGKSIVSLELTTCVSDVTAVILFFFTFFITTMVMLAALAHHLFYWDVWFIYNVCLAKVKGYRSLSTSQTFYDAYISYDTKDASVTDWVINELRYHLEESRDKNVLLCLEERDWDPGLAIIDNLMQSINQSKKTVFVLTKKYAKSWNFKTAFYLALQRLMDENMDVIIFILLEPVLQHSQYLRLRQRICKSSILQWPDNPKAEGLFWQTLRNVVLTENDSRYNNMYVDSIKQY

[3] = target: T1, Toll-like receptor 7; assay: Agonist activity at human TLR7 expressed in HEK-Blue cells assessed as induction of NFkappaB activation by measuring increase in SEAP level after overnight incubation using qunati-blue reagent by SEAP reporter gene-based spectrophotometric method; assay type: cell-based

Row | SMILES | IC50 [1] | inhibition [2] | EC50 [3]
1 | CCN1CCN(CCCn2cnc3c(N4CCCCC4)ncnc32)CC1 | 23.9 µM | inactive | –
2 | CCCCOc1nc(N)c2nc(O)n(CCCN3CCCCC3)c2n1 | – | – | 2.6 µM
3 | CCN1CCN(c2ncnc3c2ncn3CCCN2CCCCC2)CC1 | 15.8 µM | inactive | –
4 | CCN1CCN(c2ncnc3c2ncn3CCCN2CCCC2)CC1 | 48.3 µM | inactive | –
5 | CCN1CCN(CCCn2c(O)nc3c(N)ncnc32)CC1 | 43.1 µM | inactive | –

Further lines, results first:

Row | IC50 [1] | inhibition [2] | EC50 [3] | SMILES
6 | – | inactive | – | CCN1CCN(c2ncnc3c2ncn3CCCN2CCNCC2)CC1
7 | 8.6 µM | – | – | CCN(CCO)CCCC(C)Nc1ccnc2cc(Cl)ccc12 (configuration not stated) [HYDROXYCHLOROQUINE]
8 | 40 µM | inactive | – | CCN1CCN(c2ncnc3c2ncn3CCCN2CCOCC2)CC1
9 | 39.3 µM | inactive | – | CCN1CCN(CCCn2cnc3c(N4CCNCC4)ncnc32)CC1
10 | 25 µM | inactive | – | CCN1CCN(CCCn2cnc3c(N4CCOCC4)ncnc32)CC1
